Data from paper PMC10498667 (Chemical Science, 2023).

Assays:
[1] = Solubility in EtOH (TEAC conditions); format: physicochemical; conditions: under TEAC experimental conditions
[2] = system: human neuroblastoma 5Y cells; assay: MTT cytotoxicity assay; format: cell-based; conditions: at up to 100 μM; 24 h; 5Y cells; relative to DMSO
Procedure: Flavonoid 6 was synthesized following previously reported procedures with modifications.[66–68] […] It should be noted that cell viability was calculated, relative to that of the cells containing an equivalent amount of DMSO.
Cell viability was determined by the MTT assay [MTT = 3-(4,5-dimethylthiazol-2-yl)-2,5-diphenyltetrazolium bromide]. Cells were seeded in a 96-well plate (15,000 cells/100 µL) and treated with the samples {[flavonoid] = 5, 10, 25, 50, and 100 µM (1% v/v DMSO)}. After 24 h incubation, 5Y cells were washed with phosphate buffered saline (PBS; GIBCO). MTT [5 mg/mL in PBS (pH 7.4, GIBCO); 25 µL] was added to each well and the plate was incubated for 4 h at 37 °C. The formazan produced by cells was solubilized using an acidic solution of DMF (pH 4.5, 50% v/v, aq) and sodium dodecyl sulfate (SDS; 20% w/v) overnight at room temperature in the dark. Absorbance was measured at 600 nm by a microplate reader (Molecular Devices). Cell viability, relative to that of the cells containing an equivalent amount of DMSO, was calculated.
The measurements were conducted in triplicate. […]

Aβ42 = target: T1, Aβ42 (Homo sapiens, UniProt P05067); assay: ESI-MS and ESI-MS2 of Aβ42 treated with 6; conditions: 6 200 μM, 3 h
T1 construct: purchased Peptide Institute, Inc. (Osaka, Japan)
T1 sequence (P05067 672-713 limits assumed): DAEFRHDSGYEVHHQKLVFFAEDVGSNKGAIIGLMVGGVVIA
Description: (§1) To identify the modifications of Aβ in both the absence and presence of Cu(II) upon treatment of 6, we carried out the studies employing electrospray ionization mass spectrometry (ESI-MS). In the sample containing metal-free Aβ42 and 6, the addition of +16 Da into the +3-charged Aβ42 monomer, assigned to be the oxidized monomeric Aβ42, was detected (Fig. 7a), while such oxidation was not observed under anaerobic conditions (Fig. S20 ^†). To determine the oxidized amino acid residues in Aβ42, the b fragments generated by collision-induced dissociation were analyzed by tandem MS (ESI-MS^2). As illustrated in Fig. 7b and S21a, ^† the Met35 residue was measured to be the oxidation site in the singly oxidized Aβ42. […] Similar to metal-free Aβ42, the oxidation of Aβ40 at the Met35 residue was monitored by incubation with 6 (Fig. S22a, b and S23a ^†). […]
(§2) 2D 1H−15N SOFAST-HMQC NMR Experiments. […] Experimental data were processed with NMRpipe29 and Sparky 3.115.30 The 1H and 15N assignments of 15N-labeled Ab were determined based on the previous results.21,31 The chemical shift perturbation was calculated following the equation (eq 4).32 Note that DdH and DdN represent the alterations in the chemical shifts of 1H and 15N of 15N-labeled Ab, respectively. […]

Aβ40 = target: T2, Aβ40 (Homo sapiens, UniProt P05067); assay: ESI-MS and ESI-MS2 of Aβ40 treated with 6; conditions: 6 200 μM, 3 h
T2 construct: Ab40 ([…]-; purchased Peptide Institute, Inc. (Osaka, Japan)
T2 sequence (P05067 672-711 limits assumed): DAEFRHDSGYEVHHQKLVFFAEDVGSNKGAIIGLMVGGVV
Description: as §1, §2

SMILES: O=c1cc(-c2ccccc2)oc2cc(O)cc(O)c12 [compound 1, chrysin]
- solubility in ethanol (EtOH) [1]: limited solubility

SMILES: O=c1c(-c2ccc(O)c(O)c2)coc2cc(O)c(O)c(O)c12 [compound 6, 3-(3,4-dihydroxyphenyl)-5,6,7-trihydroxy-4H-chromen-4-one]
- cell survival [2]: > 90%
- plausible oxidation sites in singly oxidized Aβ (Aβ42; Cu(II)–Aβ42, Cu(II) 100 μM): His13, His14, and Met35
- oxidation site in singly oxidized Aβ (Aβ42; metal-free Aβ42 100 μM, aerobic): Met35
- plausible oxidation sites in singly oxidized Aβ (Aβ40; Cu(II)–Aβ40, Cu(II) 100 μM): His13, His14, and Met35
- oxidation site in singly oxidized Aβ (Aβ40; metal-free Aβ40 100 μM): Met35
